Positions count from the first letter of the chain named.

The target in data set [1] is T1, BCDX2 (RAD51B-RAD51C-RAD51D-XRCC2) (Homo sapiens, UniProt O15315+O43502+O43543+O75771, O15315:K114A, form not given).
T1 construct: four-subunit complex co-expressed in Sf9 cells; N-terminal TwinStrep-TEV tag on XRCC2 removed by TEV protease
As to the kind of experiment: HPLC of nucleotides extracted from purified complex. The conditions noted are these: RAD51B Walker A mutant; nucleotide co-purified with the complex; 2.5 mM Mg2+, pH 7.5. Format: binding.

For data set [2], the target named is T2, BCDX2 (RAD51B-RAD51C-RAD51D-XRCC2) (Homo sapiens, UniProt O15315+O43502+O43543+O75771).
T2 construct: four-subunit complex co-expressed in Sf9 cells; N-terminal TwinStrep-TEV tag on XRCC2 removed by TEV protease
Briefly: cryo-EM structure ([…] Å and […] Å). Format: binding. The conditions noted are these: Mg2+, sample vitrified with ADP.AlFx or ADP.BeFx.

Data set [3] concerns the target T2, BCDX2 (RAD51B-RAD51C-RAD51D-XRCC2). Briefly: HPLC of nucleotides extracted from purified complex. Format: binding. The conditions noted are these: nucleotide co-purified with the complex; 2.5 mM Mg2+, pH 7.5; sites: RAD51B and RAD51C.
The target in data set [4] is T3, BCDX2 (RAD51B-RAD51C-RAD51D-XRCC2) (Homo sapiens, UniProt O15315+O43502+O43543+O75771, O15315:E144A, form not given).
T3 construct: four-subunit complex co-expressed in Sf9 cells; N-terminal TwinStrep-TEV tag on XRCC2 removed by TEV protease
As to the kind of experiment: ATPase assay, alpha-32P-ATP, TLC. It counts as biochemical. The conditions noted are these: RAD51B catalytic glutamate mutant; 15 µM ATP, 1 µM complex, 2.5 mM Mg2+, pH 7.5, 37 °C.

The target in data set [5] is T1, BCDX2 (RAD51B-RAD51C-RAD51D-XRCC2). As to the kind of experiment: HPLC of nucleotides extracted from purified complex. It counts as binding. The conditions noted are these: RAD51B Walker A mutant; nucleotide co-purified with the complex; 2.5 mM Mg2+, pH 7.5. The source holds these as a separate data set.
Data set [6] concerns the target T4, BCDX2 (RAD51B-RAD51C-RAD51D-XRCC2) (Homo sapiens, UniProt O15315+O43502+O43543+O75771, O15315:E144A/O43502:E161A, form not given).
T4 construct: four-subunit complex co-expressed in Sf9 cells; N-terminal TwinStrep-TEV tag on XRCC2 removed by TEV protease
Described as above. As to conditions: RAD51B and RAD51C catalytic glutamate double mutant; 2.5 mM Mg2+, pH 7.5. Format: binding.

The target in data set [7] is T2, BCDX2 (RAD51B-RAD51C-RAD51D-XRCC2). The data set is described as above. Format: binding. The conditions noted are these: nucleotide co-purified with the complex; 2.5 mM Mg2+, pH 7.5.
The target in data set [8] is T5, BCDX2 (RAD51B-RAD51C-RAD51D-XRCC2) (Homo sapiens, UniProt O15315+O43502+O43543+O75771, O43502:E161A, form not given).
T5 construct: four-subunit complex co-expressed in Sf9 cells; N-terminal TwinStrep-TEV tag on XRCC2 removed by TEV protease
The data set is described as above. Format: binding. As to conditions: RAD51C catalytic glutamate mutant; 2.5 mM Mg2+, pH 7.5.

In the next data set the target is T6, B(AF647)CDX2 (Homo sapiens, UniProt O15315;O43502;O75771;O43543 1-345+=GGGSGGGDSLEFIASKLA;1-376;1-328;1-280, internal_change).
T6 sequence 1: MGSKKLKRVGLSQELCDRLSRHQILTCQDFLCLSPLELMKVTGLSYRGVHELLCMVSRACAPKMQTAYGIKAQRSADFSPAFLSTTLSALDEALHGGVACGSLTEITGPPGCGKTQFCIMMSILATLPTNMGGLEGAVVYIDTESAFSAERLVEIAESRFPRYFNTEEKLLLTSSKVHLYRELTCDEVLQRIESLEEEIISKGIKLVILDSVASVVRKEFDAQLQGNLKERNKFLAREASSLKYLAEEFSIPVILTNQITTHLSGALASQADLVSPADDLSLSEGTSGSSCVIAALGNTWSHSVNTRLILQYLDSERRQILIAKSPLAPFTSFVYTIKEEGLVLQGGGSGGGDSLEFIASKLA
T6 sequence 2: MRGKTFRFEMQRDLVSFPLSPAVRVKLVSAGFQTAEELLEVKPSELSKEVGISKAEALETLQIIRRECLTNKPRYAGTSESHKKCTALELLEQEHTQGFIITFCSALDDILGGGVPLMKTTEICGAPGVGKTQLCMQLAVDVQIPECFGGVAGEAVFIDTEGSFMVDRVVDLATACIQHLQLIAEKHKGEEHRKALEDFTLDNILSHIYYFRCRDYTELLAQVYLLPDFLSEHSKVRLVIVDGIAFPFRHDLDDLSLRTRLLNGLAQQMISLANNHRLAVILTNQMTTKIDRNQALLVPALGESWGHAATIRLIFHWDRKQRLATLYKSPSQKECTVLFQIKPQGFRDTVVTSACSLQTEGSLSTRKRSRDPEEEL
T6 sequence 3: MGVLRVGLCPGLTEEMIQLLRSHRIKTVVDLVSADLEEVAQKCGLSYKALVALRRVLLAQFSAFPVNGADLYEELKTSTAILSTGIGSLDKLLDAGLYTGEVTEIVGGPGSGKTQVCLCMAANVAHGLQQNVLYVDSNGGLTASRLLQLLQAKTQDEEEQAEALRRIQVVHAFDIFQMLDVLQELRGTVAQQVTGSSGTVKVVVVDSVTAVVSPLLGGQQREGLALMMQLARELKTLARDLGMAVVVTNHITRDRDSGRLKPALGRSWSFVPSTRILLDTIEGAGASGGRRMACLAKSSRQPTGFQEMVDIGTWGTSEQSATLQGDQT
T6 sequence 4: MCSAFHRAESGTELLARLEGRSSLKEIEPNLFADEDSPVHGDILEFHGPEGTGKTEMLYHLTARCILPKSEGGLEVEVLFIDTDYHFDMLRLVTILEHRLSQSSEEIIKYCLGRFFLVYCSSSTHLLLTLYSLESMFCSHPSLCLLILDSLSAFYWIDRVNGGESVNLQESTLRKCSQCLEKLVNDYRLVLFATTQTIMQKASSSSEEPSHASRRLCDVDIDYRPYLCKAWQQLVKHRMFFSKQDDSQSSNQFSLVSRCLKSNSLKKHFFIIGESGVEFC
As to the kind of experiment: bulk FRET; high FRET; RAD51B near 3' end; FA: protein in 25 mM HEPES pH 7.5, 10% glycerol, 2.5 mM MgCl2, 0.25 mM TCEP, 150 mM NaCl mixed 1:1 with oligo in HMT buffer, 50 mM NaCl (final ~100 mM NaCl, 5%). The conditions noted are these: protein: recombinant; TwinStrep-TEV on XRCC2 not cleaved; copies: 1;1;1;1; label: 3'-Cy3.

The next data set concerns the target T7, BCDX2(AF647) (Homo sapiens, UniProt O15315;O43502;O75771;O43543 1-345;1-376;1-328;1-280).
T7 sequence 1: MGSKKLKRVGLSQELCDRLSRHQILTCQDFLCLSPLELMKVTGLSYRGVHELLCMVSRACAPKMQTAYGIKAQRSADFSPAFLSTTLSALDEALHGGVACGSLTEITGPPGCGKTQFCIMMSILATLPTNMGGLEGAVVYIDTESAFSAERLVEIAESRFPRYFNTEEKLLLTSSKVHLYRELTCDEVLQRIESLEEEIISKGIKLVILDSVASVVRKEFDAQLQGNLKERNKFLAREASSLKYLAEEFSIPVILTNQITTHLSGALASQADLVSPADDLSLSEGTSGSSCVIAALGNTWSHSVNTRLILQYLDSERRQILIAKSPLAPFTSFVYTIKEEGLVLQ
T7 sequence 2: T6 sequence 2
T7 sequence 3: T6 sequence 3
T7 sequence 4: T6 sequence 4
As to the kind of experiment: bulk FRET; high FRET; XRCC2 near 5' end; FA: protein in 25 mM HEPES pH 7.5, 10% glycerol, 2.5 mM MgCl2, 0.25 mM TCEP, 150 mM NaCl mixed 1:1 with oligo in HMT buffer, 50 mM NaCl (final ~100 mM NaCl, 5%). The conditions noted are these: protein: recombinant; copies: 1;1;1;1; label: 5'-Cy3.

Another data set addresses T8, B(R231A)CDX2 (Homo sapiens, UniProt O15315;O43502;O75771;O43543 1-345;1-376;1-328;1-280, R231A).
T8 sequence 1: T7 sequence 1 with R231A
T8 sequence 2: T6 sequence 2
T8 sequence 3: T6 sequence 3
T8 sequence 4: T6 sequence 4
Briefly: fluorescence anisotropy; 1 mM ATP; similar to WT; FA: protein in 25 mM HEPES pH 7.5, 10% glycerol, 2.5 mM MgCl2, 0.25 mM TCEP, 150 mM NaCl mixed 1:1 with oligo in HMT buffer, 50 mM NaCl (final ~100 mM NaCl, 5%). As to conditions: protein: recombinant; tags: N-terminal TwinStrep-TEV on XRCC2, cleaved; copies: 1;1;1;1; label: 5'-FAM. In general terms: In fluorescence polarisation assays a small probe gives low polarisation when free and higher when bound to something large.

The target of a further data set is T9, B(R217A)CDX2 (Homo sapiens, UniProt O15315;O43502;O75771;O43543 1-345;1-376;1-328;1-280, R217A).
T9 sequence 1: T7 sequence 1 with R217A
T9 sequence 2: T6 sequence 2
T9 sequence 3: T6 sequence 3
T9 sequence 4: T6 sequence 4
The description is as above. As to conditions: protein: recombinant; tags: N-terminal TwinStrep-TEV on XRCC2, cleaved; copies: 1;1;1;1; label: 5'-FAM.

The target in a further data set is T10, BCD(R221A)X2 (Homo sapiens, UniProt O15315;O43502;O75771;O43543 1-345;1-376;1-328;1-280, R221A).
T10 sequence 1: T7 sequence 1
T10 sequence 2: T6 sequence 2
T10 sequence 3: T6 sequence 3 with R221A
T10 sequence 4: T6 sequence 4
Briefly: fluorescence anisotropy; 1 mM ATP; minimal effect; FA: protein in 25 mM HEPES pH 7.5, 10% glycerol, 2.5 mM MgCl2, 0.25 mM TCEP, 150 mM NaCl mixed 1:1 with oligo in HMT buffer, 50 mM NaCl (final ~100 mM NaCl, 5%). As to conditions: protein: recombinant; tags: N-terminal TwinStrep-TEV on XRCC2, cleaved; copies: 1;1;1;1; label: 5'-FAM.

T1 sequence (O15315 1-345 K114A, form open, one chain of several): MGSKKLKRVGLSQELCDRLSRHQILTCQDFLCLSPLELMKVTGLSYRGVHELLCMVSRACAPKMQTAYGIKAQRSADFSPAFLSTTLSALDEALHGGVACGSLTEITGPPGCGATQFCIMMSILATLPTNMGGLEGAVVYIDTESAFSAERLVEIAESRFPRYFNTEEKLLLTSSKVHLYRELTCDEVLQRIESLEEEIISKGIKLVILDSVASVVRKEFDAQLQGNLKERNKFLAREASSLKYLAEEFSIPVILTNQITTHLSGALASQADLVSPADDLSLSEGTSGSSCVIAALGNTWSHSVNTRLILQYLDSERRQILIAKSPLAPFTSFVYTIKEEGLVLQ
T4 sequence (O15315 1-345 E144A, form open, one chain of several): as the sequence (O15315 1-345 K114A, form open, one chain of several) above, with A114K, E144A counted along it
T4 sequence (O43502 whole entry E161A, form open, one chain of several): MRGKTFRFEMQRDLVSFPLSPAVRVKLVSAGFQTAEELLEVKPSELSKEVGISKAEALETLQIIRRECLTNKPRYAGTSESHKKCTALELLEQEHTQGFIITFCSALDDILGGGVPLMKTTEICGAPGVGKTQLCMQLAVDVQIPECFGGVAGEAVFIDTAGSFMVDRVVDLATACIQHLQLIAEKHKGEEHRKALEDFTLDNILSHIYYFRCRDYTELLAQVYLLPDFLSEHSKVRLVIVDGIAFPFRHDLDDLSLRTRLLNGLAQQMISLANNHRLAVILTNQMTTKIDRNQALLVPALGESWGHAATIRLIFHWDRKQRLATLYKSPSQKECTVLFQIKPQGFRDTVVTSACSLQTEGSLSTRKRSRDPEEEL
T3 sequence (O15315 1-345 E144A, form open, one chain of several): as the sequence (O15315 1-345 K114A, form open, one chain of several) above, with A114K, E144A counted along it
T5 sequence (O43502 whole entry E161A, form open, one chain of several): as the sequence (O43502 whole entry E161A, form open, one chain of several) above

On to `Nc1ncnc2c1ncn2[C@@H]1O[C@H](COP(=O)(O)OP(=O)(O)O)[C@@H](O)[C@H]1O` [ADP], for which the results for the “nt of ADP bound per complex” value in data set [1] and in data set [3] were 1.2 ± 0.1 nt per complex and 1.9 ± 0.1 nt per complex, respectively. In addition, the “cryo-EM structure (2.2 Å and 3.4 Å)” value in [2] (site: RAD51C nucleotide site) is “RAD51D and XRCC2 bound ATP whereas RAD51C bound ADP”.
Turning to `Nc1ncnc2c1ncn2[C@@H]1O[C@H](COP(=O)(O)OP(=O)(O)OP(=O)(O)O)[C@@H](O)[C@H]1O` [ATP], the “% reduction of ATPase activity relative to wild-type” value in data set [4] is listed as ~ 50%. The figures for the “nt of ATP bound per complex” value in [5] and in data set [7] were 1.8 ± 0.1 nt per complex and 2.1 ± 0.2 nt per complex, respectively. Also, the “HPLC of nucleotides extracted from purified complex” value in data set [6] and in data set [8] was “all nucleotide binding sites were fully occupied with ATP” in each case. The “cryo-EM structure (2.2 Å and 3.4 Å)” value in data set [2] (sites: RAD51D and XRCC2 nucleotide sites, co-purified nucleotide) is “RAD51D and XRCC2 bound ATP whereas RAD51C bound ADP”.
Consider TATCGAATCCGTCTA (ssDNA) [dN15nt-Cy3-3'], for which, in the data set with B(AF647)CDX2, the binding result is reported as “binds”.
In the case of TATCGAATCCGTCTA (ssDNA) [5'-Cy3-dN15nt], the binding result with BCDX2(AF647) is given as “binds”.
On to TATCGAATCCGTCTA (ssDNA) [FAM-dN15nt], for which the binding result with B(R231A)CDX2, with B(R217A)CDX2 and with BCD(R221A)X2 was “binds” in each case.

The values above are taken from paper PMC7614784, “Structure and function of the RAD51B-RAD51C-RAD51D-XRCC2 tumour suppressor” (Nature, 2023).
